# Results reported in patent publication US11446307B2, “Crystalline forms of a deoxycytidine kinase inhibitor and uses thereof” (Trethera Corporation, priority 2020, dated 2022).
# What was measured:
# [1] = tested on: myelin oligodendrocyte glycoprotein (MOG)-induced experimental autoimmune encephalomyelitis (EAE); assay: Mouse model of MOG-induced experimental autoimmune encephalomyelitis (EAE), prophylactic and therapeutic dosing; assay type: in vivo; details: 75 mg/kg P.O. BID Days 8-25 (therapeutic)
# Method: Adult female C57BL/6J mice were randomly allocated to experimental groups and allowed to acclimatize for one week prior to commencing the study. On Day 0 and Day 7, animals were administered an emulsion (200 μL/mouse) of MOG35-55 and complete Freund's adjuvant (CFA). […]. On Day 0 (immediately post-MOG injection) and Day 2, animals were administered with pertussis toxin (PTx, 500 ng/mouse) prepared in phosphate buffered saline (PBS, 100 μL/mouse) by intra-peritoneal injection.
# Treatment was performed twice daily (BID) prophylactically starting on Day 1 for groups 1, 2, and 4, and therapeutically starting on day 8 for group 3. All experimental groups were n=12. The administration interval was 12 hours and the administration volume was 5 mL/kg.
# Because body weight loss is known to be an important hallmark of EAE occurring in correspondence of the appearance of the first symptoms, animals were weighed daily from the day of immunization (Day 0) until the end of the experiment. The changes in body weight observed over the course of the experiment for the different experimental groups, presented as mean±SEM, are summarized in FIG. 7. […]
# From Day 0 until the end of the experiment, animals were scored daily for clinical signs of EAE to include paresis and paralysis affecting the tail and the limbs. […]
# [2] = tested on: myelin oligodendrocyte glycoprotein (MOG)-induced experimental autoimmune encephalomyelitis (EAE); assay: Variable dose mouse model of MOG-induced experimental autoimmune encephalomyelitis (EAE); assay type: in vivo; details: vehicle BID 18 days, Log-rank p=0.039
# Method: 60 female C57BL/6 mice were housed for an acclimation period of 1 week. 53 mice were enrolled in the study after randomization with a body weight between 18.3-22.3 g with an average body weight of 19.7 g per group on Study day minus 1.
# For induction of MOG-EAE, MOG35-55 peptide was administered in phosphate buffered saline (PBS) and complete Freund's adjuvant (CFA). MOG35-55 peptide in PBS was emulsified in a 1:1 (v:v) mixture with CFA via homogenization in an Omni BeadRuptor Elite using 7 mL tubes pre-filled with 2.8 mm ceramic beads. Briefly, MOG35-55 peptide was brought up to 1 mg/mL in cold PBS, and 1.75 mL aliquoted into each homogenization tube. An equal volume (1.75 mL) CFA was then added for a total volume of 3.5 mL, on ice. Two rounds of homogenization were performed using a speed of 3.5 m/s; 3 cycles of 45 seconds with 30 seconds dwell at 4° C., followed by a third round with 2 cycles of 45 seconds and 30 seconds dwell at 4° C. In between each round, samples were placed on ice for ˜15 minutes. Tubes were spun down at 300 g for 1 minute at 4° C. Mice were anesthetized under isoflurane anesthesia. 100 μL (50 μg MOG35-55) was then injected subcutaneously into the flank of each leg (for a total of two injections and 100 μg MOG35-55). On Study Day 0 and Day 2, pertussis toxin was formulated at a concentration of […] in PBS, and 100 μL (200 ng) injected into each animal by intraperitoneal injection.
# Treatment was performed BID starting on Day 1 for groups 2, 3, and 4, and once daily (QD) starting on day 1 for group 5. All experimental groups were n=12. The administration interval was 12 hours and the administration volume was 5 mL/kg.
# The Body condition score of all animals was monitored on study Days 0, 7, 10 and then every other day. […]
# Disease severity was scored on Day 0, 7 and every 2 days beginning on Day 10 onward for all groups. […]
# Disease incidence rate was calculated as percentage of total animals per group starting from day 0 until termination on study day 28. […]
# [3] = Accelerated stability tests of polymorph Form II (HPLC purity and potency); assay type: physicochemical
# Method: High-performance liquid chromatography (HPLC) was performed using the following instrument and/or conditions.
Structure (SMILES),animals showing no symptoms at all (complete remission) ([1]; after Day 20) [%],"disease incidence (highest reached) ([1]; on Day 19, vehicle reached 100% on Day 13) [%]",median time to disease ([2]; 25 mg/kg BID PO) [days],median time to disease ([2]; 75 mg/kg BID PO) [days],median time to disease ([2]; 100 mg/kg QD PO) [days],Potency (%) ([3]; 25° C./60% RH for 1 week),Purity (area %) ([3]; 25° C./60% RH for 1 week),Potency (%) ([3]; 40° C./75% RH for 1 week),Purity (area %) ([3]; 40° C./75% RH for 1 week),Potency (%) ([3]; 60° C. for 1 week),Purity (area %) ([3]; 60° C. for 1 week),Potency (%) ([3]; API standard (no exposure)),Purity (area %) ([3]; API standard (no exposure))
"COc1ccc(-c2nc([C@@H](C)Sc3nc(N)cc(N)n3)c(C)s2)cc1OCCN1CCOCC1 [Compound 1, (R)-2-((1-(2-(4-methoxy-3-(2-morpholinoethoxy)phenyl)-5-methylthiazol-4-yl)ethyl)thio)pyrimidine-4,6-diamine]",~27,~92,18,19,20,,,,,,,,
"COc1ccc(-c2nc([C@@H](C)Sc3nc(N)cc(N)n3)c(C)s2)cc1OCCN1CCOCC1 [polymorph Form II, (R)-2-((1-(2-(4-methoxy-3-(2-morpholinoethoxy)phenyl)-5-methylthiazol-4-yl)ethyl)thio)pyrimidine-4,6-diamine]",,,,,,98.7,98.75,98.6,98.66,98.6,98.75,98.6,98.22
